Assay results: US8629116B2, “Method for inducing a TRIF-bias” (priority 2008, dated 2014)
“Also recorded” adds a separate entry of the source.

Legend:
[1] = system: RAW264.7 (macrophage) cells; test: TNFα and IP-10 production in RAW264.7 cells; type: cell-based, mouse
Text: To better compare and confirm the similarity of potency between the L and D isomers in murine cells, RAW264.7 (macrophage) cells are stimulated over a wider dose range with CRX-527, CRX-547, compounds 1a and 1b and the supernatants assayed for MyD88 (TNFα) and TRIF-dependent (IP-10) production.
Since MyD88-dependent signaling after TLR4 stimulation should be earlier than TRIF dependent signaling, and because both MyD88 and TRIF can induce downstream TNFα production due to activation of the NFκB pathway, an earlier timepoint is tested for cytokine production after stimulation with the L and D isomers.

[2] = biological target: T1, human TLR4 and murine MD-2 (UniProt O00206+Q9JHF9); test: NFκB promoter activity in HEK293 cells with chimeric human TLR4 and murine MD-2; type: cell-based, human/mouse; settings: HEK293 huTLR4/muMD-2
T1 construct: expressed in transfected cells; host or cells: HEK293

THP-1 cells = test: Cytokine induction with dominant negative MyD88 or TRIF constructs in THP-1 macrophages; type: cell-based, human; settings: for induction of TRIF-dependent cytokines when TRIF is knocked down: dominant negative TRIF construct
Method: THP-1 cells are seeded in 12-well plates (5×10^5 cells/well) and incubated in 0.5 mL RPMI 1640 (ATCC) with 100 U/mL penicillin/100 ug/mL streptomycin (Sigma) with 20 ng/mL phorbol mystyric acid (PMA) (InvivoGen) for differentiation into macrophages. After differentiation of the THP-1, the media is changed to THP-1 media with 5 ng/mL PMA and the cells are transiently transfected with 0.5 μg/well of the pDeNy-hMyD88/LacZ, pDeNy-TRIF/LacZ, or pUNO-mcs (control)/LacZ plasmids and Fugene 6 transfection reagent for 48 h. Media is exchanged for fresh media and the cells are then stimulated with the indicated concentrations of TLR4 agonists for 14 hours. Harvested supernatants are assayed for cytokine levels by multiplex sandwich ELISA (R&D Systems) with the luminex platform. Control wells are assayed for transfection efficiency using the Invivogen LacZ Quantitation Kit.

[3] = Induction of serum cytokines/chemokines in mice; type: in vivo, mouse; settings: C57BL/6 mice, 2 or 6 hours post injection
Method: Female BALB/c or C57B1/6 mice are obtained from Charles River Laboratories, USA, and are 7 to 9 weeks of age when the experiments are initiated. Mice are injected intraperitoneally with 200 uL of agonist in vehicle (0.2% glycerol) or vehicle alone. Serum samples are drawn at 2 or 6 hours post-injection and are tested for induction of cytokines/chemokines by multiplex sandwich ELISA (Invitrogen) on the Luminex platform. All animals are used in accordance with guidelines established by the Public Health Service and the Institutional Animal Care and Use Committee at GlaxoSmithKline Biologicals, Hamilton, Mont.
To ensure that this response is not specific to BALB/c mice, a similar test of serum cytokine induction in C57BL/6 mice is carried out. (FIG. 16). The kinetics (induction at 2 or 6 hours post injection) and magnitude of cytokine induction are similar for CRX-527 and CRX-547 for both MyD88-dependent (TNFα, IL-10) and TRIP-dependent (RANTES, IP-10, MIG) cytokines/chemokines, although the relative induction by CRX-547 is slightly less for select cytokines than that seen in BALB/c (not shown). […]

[4] = system: human PBMC-derived monocytes; test: Cytokine/chemokine gene expression (qPCR time course) in human PBMC-derived monocytes; type: cell-based; settings: for time of highest IFNβ gene induction: qPCR time course
Text: Initial experiments include time course analysis of MyD88- and TRIF-dependent cytokine gene induction using qPCR.

PBMCs from BALB/c mice = test: Cytokine induction in PBMCs from BALB/c mice; type: cell-based, mouse; settings: CRX-527 versus CRX-547; experiment performed once
Method: To determine whether PBMCs from mouse blood have similar profiles of MyD88 cytokines after CRX-527 or CRX-547 treatment, commercially available blood from BALB/c mice is tested with CRX-527 or CRX-547. (FIG. 24), Levels appear to be similar between the two groups tested.

[5] = system: human PBMC-derived macrophages; test: Cytokine/chemokine induction in the presence of the endocytosis inhibitor Dynasore; type: cell-based; settings: with Dynasore; for MyD88-dependent MIP-1α induction under inhibition of endocytosis: relative to non-treated cells
human primary monocytes = test: Western blot of human primary monocytes (IRAK-1, IRF-3); type: cell-based; settings: Western blot time course
Method: (§1) For Western blot and phospho-Western blot protein analysis, cells are lysed with Cell Lysis Buffer (Cell Signaling Technology, Danvers, Mass.) with Protease Inhibitor Cocktail (Sigma, St. Louis Mo.). Western Blot on PVDF membranes (Millipore) is performed using standard methods. Bands are detected with ECL Advance Western Blot kit (GE Healthcare, Piscataway, N.J.). Secondary Anti-Rabbit HRP antibody is obtainable from KPL, (Gaithersburg, Md.). Anti-βactin, anti-IRF-3, anti-phospho-IRF-3 (Ser396) and anti-IRAK1 antibodies are obtained from Cell Signaling Technology (Danvers, Mass.).
Degradation of the Serine/Threonine Kinase, IRAK-1, occurs downstream of MyD88-dependent TLR4 signaling (Hatao et al, 260-64; Neumann et al. 1089-94), while TRIF-dependent TLR4 signaling results in IRF-3 activation (Yamamoto et al. 6668-72; Yamamoto et al. 640-43). Here, human primary monocytes are stimulated with either CRX-547 or CRX-527 for the indicated times, and cellular lysates are analyzed by Western Blot for the levels of the MyD88 pathway-activated kinase, IRAK-1, and the TRIF pathway-activated transcription factor, IRF-3 (phospho-IRF-3 and total IRF-3). The levels of β-actin is used as the loading control.

MM6 cells = test: Western blot of MM6 cells (IκBα, IRAK4, p38, IRF3); type: cell-based, human; settings: for IRAK-4 / total IκBα / TRIF-mediated signaling proteins (phospho-p38, total p38, IRF3, phospho-IRF3): 10 ng/ml; for TRIF-mediated signaling proteins (phospho-p38, total p38, IRF3, phospho-IRF3): difference between the two AGPs
Method: as §1
The role of MAPK signaling molecules in MyD88 versus TRIF signaling after TLR4 ligation is complicated because p38 is implicated in both pathways, however a role for p38 phosphorylation as an indicator of the TRIF pathway is indicated in the literature. […] To determine whether the phosphorylation state of p38 is different after stimulation with CRX-527 versus CRX-547, western blot analysis is performed on lysates from MM6 cells.
MAPK pathways and downstream transcription factors are differentially regulated by TLR agonists. Degradation of IRAK4 and IκBα are indicative of MyD88 after TLR4 signaling (Hatao et al. 260-64; Neumann et al. 1089-94), while TRIF-mediated TLR4 signaling results in IRF3 activation (Yamamoto et al. 6668-72; Yamamoto et al. 640-43). MM6 cells are stimulated with either CRX-547 or CRX-527 (10 ng/ml) for the indicated time. Cellular lysates are collected and Western Blot analysis of the MyD88 pathway proteins, Phospho-IκBα, total IκBα, IRAK4, and TRIF pathway proteins, phospho-p38, total IRF3 and phospho IRF3 is performed using βactin as the loading control.

[6] = dominant negative MyD88 construct

T1 sequence (O00206 24-839): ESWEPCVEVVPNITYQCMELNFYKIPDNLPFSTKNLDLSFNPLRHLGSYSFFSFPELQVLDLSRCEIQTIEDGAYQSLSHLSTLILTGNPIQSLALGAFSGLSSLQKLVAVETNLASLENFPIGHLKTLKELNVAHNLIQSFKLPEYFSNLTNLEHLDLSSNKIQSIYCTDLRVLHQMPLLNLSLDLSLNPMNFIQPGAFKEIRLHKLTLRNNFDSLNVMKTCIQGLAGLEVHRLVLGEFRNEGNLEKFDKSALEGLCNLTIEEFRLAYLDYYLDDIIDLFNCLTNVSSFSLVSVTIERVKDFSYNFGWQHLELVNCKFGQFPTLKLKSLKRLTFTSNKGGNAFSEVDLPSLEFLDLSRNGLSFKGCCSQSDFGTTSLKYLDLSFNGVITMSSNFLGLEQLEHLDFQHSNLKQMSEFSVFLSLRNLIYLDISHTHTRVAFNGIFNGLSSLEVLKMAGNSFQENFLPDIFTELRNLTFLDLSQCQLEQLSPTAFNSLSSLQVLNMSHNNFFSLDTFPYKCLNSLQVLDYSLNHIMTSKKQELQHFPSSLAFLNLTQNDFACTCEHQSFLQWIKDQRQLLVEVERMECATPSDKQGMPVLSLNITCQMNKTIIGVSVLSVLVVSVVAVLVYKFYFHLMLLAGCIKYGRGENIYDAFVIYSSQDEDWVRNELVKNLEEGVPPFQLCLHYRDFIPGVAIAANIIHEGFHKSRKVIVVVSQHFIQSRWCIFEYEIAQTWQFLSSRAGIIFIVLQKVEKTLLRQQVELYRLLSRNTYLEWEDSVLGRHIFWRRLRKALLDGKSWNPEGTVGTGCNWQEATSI
T1 sequence (Q9JHF9 19-160): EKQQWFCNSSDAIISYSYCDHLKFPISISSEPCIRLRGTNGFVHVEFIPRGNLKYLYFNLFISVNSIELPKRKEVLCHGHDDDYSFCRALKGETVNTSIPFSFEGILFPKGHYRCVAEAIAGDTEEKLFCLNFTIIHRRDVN

Row | Structure (SMILES) | potency for IP-10 production ([1]; wider dose range) | potency for TNFα production ([1]; wider dose range) | induction of promoter activity, CRX-527 versus CRX-547 [2] | induction of MyD88-dependent cytokine (TNFα) when MyD88 signaling is inhibited (THP-1 cells; [6]) | induction of TRIF-dependent cytokines when TRIF is knocked down (THP-1 cells) | kinetics and magnitude of serum cytokine induction (TNFα, IL-10, RANTES, IP-10, MIG) [3] | time of highest IFNβ gene induction [4] | MyD88 cytokine levels (PBMCs from BALB/c mice) | TRIF-dependent RANTES induction under inhibition of endocytosis [5] | MyD88-dependent MIP-1α induction under inhibition of endocytosis [5] | IRAK-1 level (MyD88 pathway) (human primary monocytes) | IRAK-4 (MM6 cells) | total IκBα (MM6 cells) | TRIF-mediated signaling proteins (phospho-p38, total p38, IRF3, phospho-IRF3) (MM6 cells) | potency for IP-10 production ([1]; four hours of stimulation) | potency for TNFα production ([1]; four hours of stimulation) | induction of TRIF-dependent cytokine RANTES when MyD88 signaling is inhibited (THP-1 cells; [6]) | MyD88-dependent cytokine/chemokine gene expression [4] | TRIF-dependent cytokine/chemokine gene expression [4] | phosphorylation state of p38 (MM6 cells; compared to CRX-547)
1 | CCCCCCCCCCCC(CC(=O)NC(COC1OC(CO)C(OP(=O)(O)O)C(OC(=O)CC(CCCCCCCCCCC)OC(=O)CCCCCCCCC)C1NC(=O)CC(CCCCCCCCCCC)OC(=O)CCCCCCCCC)C(=O)O)OC(=O)CCCCCCCCC.CCN(CC)CC (stereo not shown) [CRX-547] | less potent | less potent | large relative difference | unaffected | reduced to a similar extent | similar | 1 h | similar | inhibits | increases slightly | delayed and reduced degradation | delayed and less degradation | delayed and less degradation | little or difference | – | – | – | – | – | –
2 | CCCCCCCCCCCC(CC(=O)NC(COC1OC(CO)C(OP(=O)(O)O)C(OC(=O)CC(CCCCCCCCCCC)OC(=O)CCCCCCCCC)C1NC(=O)CC(CCCCCCCCCCC)OC(=O)CCCCCCCCC)C(=O)O)OC(=O)CCCCCCCCC.CCN(CC)CC (stereo not shown) [CRX-527] | more potent | more potent | large relative difference | significantly reduced | reduced to a similar extent | similar | 1 h | similar | inhibits | increases slightly | rapid decrease; also recorded: greater degradation | rapid decrease; also recorded: greater degradation | rapid decrease | little or difference | slightly more potent | slightly more potent | only slightly reduced | greater | greater | slight increase
